Assay [1] deals with DNA dC->dU-editing enzyme APOBEC-3G (Homo sapiens) (UniProt Q9HC16). As to the kind of experiment: Binding affinity to FLAG-tagged human A3G expressed in human 293T cells at 13 uM incubated for 16 hrs by streptavidin agarose based immunoblot analysis. It counts as cell-based.
The target is the same in assay [2]. As to the kind of experiment: Binding affinity to FLAG-tagged human A3G expressed in human 293T cells at 13 uM incubated for 16 hrs in presence of EDTA by streptavidin agarose based immunoblot analysis. It counts as cell-based.

Activity calls are given as the source filed them. No cut-off for these calls is given here.

DNA dC->dU-editing enzyme APOBEC-3G (Homo sapiens), sequence (Q9HC16 whole entry): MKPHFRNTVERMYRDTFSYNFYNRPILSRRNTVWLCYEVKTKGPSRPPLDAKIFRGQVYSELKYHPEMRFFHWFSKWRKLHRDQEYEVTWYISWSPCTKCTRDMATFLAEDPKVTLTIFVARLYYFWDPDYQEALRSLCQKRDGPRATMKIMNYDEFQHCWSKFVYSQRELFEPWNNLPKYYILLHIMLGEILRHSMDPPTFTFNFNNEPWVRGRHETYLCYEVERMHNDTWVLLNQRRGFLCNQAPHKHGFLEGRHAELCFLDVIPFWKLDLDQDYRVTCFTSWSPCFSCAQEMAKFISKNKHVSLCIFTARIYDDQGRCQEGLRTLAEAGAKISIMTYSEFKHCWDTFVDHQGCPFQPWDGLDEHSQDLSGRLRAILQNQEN

`COC(=O)CCCC[C@@H]1SC[C@@H]2NC(=O)N[C@@H]21`: in assay [1], the result was inactive.
Regarding `O=C(CCCC[C@@H]1SC[C@@H]2NC(=O)N[C@@H]21)NCCCCCCOC(=O)Nc1cc(CNCCS)nc(CNCCS)c1`, the result in assay [2] was inactive. For the same compound, the outcome in assay [1] was Active.

(Values after ChEMBL document CHEMBL3826958, “Zinc-mediated binding of a low-molecular-weight stabilizer of the host anti-viral factor apolipoprotein B mRNA-editing enzyme, catalytic polypeptide-like 3G” (Bioorg Med Chem, 2016).)
